Experimental findings from publication PMC4807248 (The Journal of Biological Chemistry, 2016) are described below.

In assay [1] the target is T1, PqsBC (Pseudomonas aeruginosa, UniProt Q9I4X1, H269A).
T1 construct: gene pqsC
In words: biochemical.

The target in assay [2] is T2, PqsBC (Pseudomonas aeruginosa, UniProt Q9I4X1, C129S).
T2 construct: gene pqsC
In words: biochemical.

In assay [3] the target is T3, PqsBC (Pseudomonas aeruginosa, UniProt Q9I4X1, C129A).
T3 construct: gene pqsC
Put plainly: biochemical.

Assay [4] concerns the target T4, PqsBC (Pseudomonas aeruginosa, UniProt Q9I4X1, V299N).
T4 construct: gene pqsC
Put plainly: biochemical.

Another assay deals with T5, PqsC^C129A (P. aeruginosa PAO1, UniProt Q9I4X1 2-348, C129A).
T5 construct: also called PqsC subunit of PqsBC^C129A
T5 sequence: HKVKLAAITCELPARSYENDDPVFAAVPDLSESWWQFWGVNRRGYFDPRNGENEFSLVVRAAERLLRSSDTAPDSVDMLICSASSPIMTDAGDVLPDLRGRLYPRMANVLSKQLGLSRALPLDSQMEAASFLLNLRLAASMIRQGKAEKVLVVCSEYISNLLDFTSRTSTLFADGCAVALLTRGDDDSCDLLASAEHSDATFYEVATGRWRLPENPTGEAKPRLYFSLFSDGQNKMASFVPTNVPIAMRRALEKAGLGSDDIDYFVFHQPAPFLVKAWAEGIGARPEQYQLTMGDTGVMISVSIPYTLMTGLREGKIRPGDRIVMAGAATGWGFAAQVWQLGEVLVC
Put plainly: crystal structure; PqsBC^C129A crystallised in 25% PEG 3350, 0.1 M Tris pH 8.3, 0.2 M NaCl; 2.0 Å; four copies of PqsB and four of PqsC in the asymmetric unit. Particulars: both partners purified.

T1 sequence (Q9I4X1 whole entry, stated change not applied, one chain of several): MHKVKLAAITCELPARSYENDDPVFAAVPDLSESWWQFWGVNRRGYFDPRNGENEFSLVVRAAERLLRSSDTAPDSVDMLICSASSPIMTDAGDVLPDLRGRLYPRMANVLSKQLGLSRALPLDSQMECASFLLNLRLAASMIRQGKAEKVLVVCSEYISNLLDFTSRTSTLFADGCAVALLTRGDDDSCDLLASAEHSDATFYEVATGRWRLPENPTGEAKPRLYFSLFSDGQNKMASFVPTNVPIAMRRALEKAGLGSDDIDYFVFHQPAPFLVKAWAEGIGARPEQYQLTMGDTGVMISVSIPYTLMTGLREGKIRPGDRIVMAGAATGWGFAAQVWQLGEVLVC
T3 sequence (Q9I4X1 whole entry, stated change not applied, one chain of several): as above
T4 sequence (Q9I4X1 whole entry, stated change not applied, one chain of several): as above
T2 sequence (Q9I4X1 whole entry, stated change not applied, one chain of several): as above

As for `CC(=O)c1ccccc1N` [2-aminoacetophenone], the Kd (in general, the constant that tells how readily two partners part at equilibrium) at PqsBC [1] is 117 ± 6 µM; on PqsBC [2], 170 ± 10 µM; at PqsBC [3], 158 ± 12 µM; on PqsBC [4] it was > 1000 µM.
For `Nc1ccccc1C(=O)CC(=O)O` [2-aminobenzoylacetate], the Kd at PqsBC [1] was 198 ± 11 µM; on PqsBC [2] it was 411 ± 43 µM; on PqsBC [3] it was 330 ± 30 µM; on PqsBC [4], > 1000 µM.

B1: PqsB (natural protein)
chain: MLIQAVGVNLPPSYVCLEGPLGGERPRAQGDEMLMQRLLPAVREALDEAAVKPEEIDLIVGLALSPDHLIENRDIMAPKIGHPLQKVLGANRAHVFDLTDSSLARALYVVDTLASDQGYRNVLVVRGESSQGLEVDSESGFALADGALALLCRPTGKAAFRRGALGGDPAQEWLPLSIPLNTDIRQVGDVKGHLNLPAQPGLPEAVRAGFTRLAGDFPQLNWVREEWFGQGRPDGRCLGPFELASQLRAAQRDRLDELLLISFDPFGMVVEGVTLELAGEAHA
notes: also called PqsB subunit of PqsBC
Consider B1, for which the binding result with PqsC^C129A is “binds”.
